From US20240306641A1, “P-BOOSTER” (EUROCHEM ANTWERPEN, priority 2021, published 2024)

Tested on: rice cultivar Nipponbare
Assay: Rice box experiment (plant height)
Type: in vivo
Settings: low phosphate 0.025 mM, 10 μM compound, 13 days after germination
Experimental: All Arabidopsis plant experiments were performed using the Arabidopsis thaliana Columbia-0 background. The Arabidopsis pSPX1::GUS line is described in the […] 2008, 54: 965-975. For rice, the cultivar Nipponbare was used. For maize, the cultivars DKC 2931 and 8104 were used for regular pot experiments and sand-based pot experiments, respectively. For soybean, the cultivar Primus was used. […] The medium was solidified due to the addition of 0.6% Gelrite, unless stated otherwise. […]
Arabidopsis primary root growth experiments were done on MS1/2 on vertical standing plates and roots were measured 11 days after germination. Roots were imaged using a flatbed scanner (EPSON Expression 11000XL) and root length was measured using ImageJ software. Arabidopsis shoot biomass was determined in 11 days after germination and growth on vertical standing plates with modMS. Arabidopsis leaf area was measured 21 days after germination on horizontal plates with modMS medium. Plates were scanned from the top using a flatbed scanner (EPSON Expression 11000XL) and the visible leaf area was measured using ImageJ software. […] Plant height was measured 11 days after germination. […] Plant height was measured 13 days after germination. […]

**Q.** Which Plant height does the source give for CCN(CCCNc1ncnc2nc(N)ccc12)c1ccccc1 [Example 1] here?
**A.** 4.1 cm
